Activity calls are given as the source filed them.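 The calls were made as follows: active = fitted curve drops below -35% activity at a concentration within twice the top valid tested dose; inconclusive = no clear call, values can overlap the other calls; inactive = signal rising instead of falling, among other cases.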

The nature of one assay: HepG2 hepatoma cell cytotoxicity, dose response, cytotoxicity control, CellTiter-Glo luminescence, cherry-pick, set 3 (AID 720589). The settings on record: HepG2 viability, ATP luminescence (CellTiter-Glo), 72 h; at 0.011 µM; stronger effect = lower value; 0% = untreated, negative = ATP loss.
Regarding `COC(=O)C[C@@H]1CC[C@@H]2[C@H](COc3ccc(NC(=O)c4ccc(C(F)(F)F)cc4)cc3C(=O)N2C)O1`, the max activity is -32.2% (inactive).
On to `C/C(=N\N(c1ccccc1)c1ccccc1)c1ccco1`, for which the max activity was 17.6% (inactive).
Same read-out and setting: then `CC(C)(C)c1ccc(/C=N/Nc2ccc(C(=O)O)cc2)cc1`, with 17.4% (inactive); and `COc1ccccc1-c1cn(CC[C@H]2CC[C@@H](NC(=O)C3CCCC3)[C@@H](CO)O2)nn1`, with 18.9% (inactive).
With `Cc1ccc(N=C2NC(=O)/C(=C\c3cccs3)S2)cc1C`, the max activity was -17.8% (inactive).
Regarding `CC(=O)N1CCCC(c2cc(C(=O)Nc3ccccc3)no2)C1` (stereo not given), the max activity was 15.4% (inactive).
Still for that read-out and setting: the figure for `CCOc1ccc(-c2cc(CCCC(=O)N3CCN(c4ccc(OC)cc4)CC3)no2)cc1` is -25.4% (inactive).
Still for that read-out and setting: then `COc1cc(C(c2c(C)[nH][nH]c2=O)c2c(C)[nH][nH]c2=O)ccc1OC(C)C`, with 22.1% (inactive).

The assay is the same for the next values; noted with them: HepG2 viability, ATP luminescence (CellTiter-Glo), 72 h; at 0.035 µM; stronger effect = lower value; 0% = untreated, negative = ATP loss.
With `CCc1ccc(/C=C2\SC(=S)N(CCC(=O)Nc3cc(C)on3)C2=O)cc1`, the max activity is -25.9% (inactive).
On the same count and under the same terms, then `COCCCNc1ccn2nc(-c3ccccc3)cc2n1`, with -48% (inactive).
As for `COc1ccc(C2=Nn3c(nnc3-c3ccccc3OC)SC2)cc1OCC1CC1`, the max activity was -29% (inactive).
Same read-out and setting: the figure for `COc1ccc(S(=O)(=O)N2CC[C@@H]3[C@H](CO)Nc4ccc(-c5ccc(C#N)cc5)cc4[C@@H]32)cc1` is -30.4% (inactive); for `S=C(NCCN1CCOCC1)Nc1ccccc1Cl` it is -36.4% (inactive); for `Cc1ccc(C(=O)CN2C(=O)c3ccccc3S2(=O)=O)cc1` it is 23.9% (inactive).

The assay is the same for the next values; noted with them: HepG2 viability, ATP luminescence (CellTiter-Glo), 72 h; at 0.1 µM; stronger effect = lower value; 0% = untreated, negative = ATP loss.
Regarding `CCC(C)Cn1c(O)cc2nn(-c3nc4ccccc4s3)c(=O)c-2c1C` (stereo not given), the max activity is -32.2% (inactive).
On to `COc1cccc(Sc2ccccc2/C=N/NC(N)=O)c1`, for which the max activity is -25.8% (inactive).
Still for that read-out and setting: then `CN(C)C(=O)c1cccc(-c2ccc(C3[C@@H]4CN(Cc5nccs5)C[C@H]3N4)cc2)c1` (stereo not given in full), with -30.3% (inactive); and `COc1ccc(C/C(N)=N/OC(C)=O)cc1OC`, with -33.4% (inactive); and `COC(=O)Cc1ccc(NC(=O)c2ccccc2Cl)cc1`, with -26.9% (inactive).
Same read-out and setting: the figure for `CCc1ccc(N2C=C(C(=O)OC)C(c3ccc(OC)cc3)C(C#N)=C2N)cc1` (stereo not given) is -15.5% (inactive).
Take `CCOC(=O)C1CCCCN1C(=O)CCc1c(C)nc2cc(-c3ccccc3)nn2c1C` (stereo not given): the max activity is 21.3% (inactive).

Staying with this assay, now noted: HepG2 viability, ATP luminescence (CellTiter-Glo), 72 h; at 0.3 µM; stronger effect = lower value; 0% = untreated, negative = ATP loss.
Consider `O=C(CNC(=O)Cc1ccccc1)N=Nc1c(O)n(Cc2ccc3c(c2)OCO3)c2ccccc12`, for which the max activity was -28.9% (inactive).
The same measure, in the same setting: then `COC(=O)C[C@@H]1CC[C@@H]2[C@@H](COc3ccc(NC(=O)Nc4ccccc4C)cc3C(=O)N2C)O1`, with -23.1% (inactive); and `N#C[C@H]1[C@H](c2ccc(-c3ccccc3F)cc2)[C@@H](CO)N1C(=O)Cc1ccccc1`, with -22.2% (inactive).
Same read-out and setting: then `Nc1ccc(Oc2ccccc2-c2ccccc2)cc1`, with -37% (inactive).

Staying with this assay, now noted: HepG2 viability, ATP luminescence (CellTiter-Glo), 72 h; at 0.9 µM; stronger effect = lower value; 0% = untreated, negative = ATP loss.
In the case of `COC(=O)C[C@@H]1CC[C@@H]2[C@H](COc3ccc(NC(=O)c4ccc(F)cc4)cc3C(=O)N2C)O1`, the max activity was -31.5% (inactive).
On the same count and under the same terms, then `O=C(NCc1ccccn1)c1ccc(CNS(=O)(=O)c2cccc(Cl)c2)cc1`, with -24.4% (inactive); and `COc1ccc(/C=C2/SC(=S)N(CCCC(=O)Nc3ccccc3C(=O)O)C2=O)cc1`, with -31.4% (inactive).

The same assay, now with this note: HepG2 viability, ATP luminescence (CellTiter-Glo), 72 h; at 2.6 µM; stronger effect = lower value; 0% = untreated, negative = ATP loss.
With `COC(=O)C[C@@H]1CC[C@@H]2[C@H](COc3ccc(NC(=O)c4cccc(Cl)c4)cc3C(=O)N2C)O1`, the max activity is -17.7% (inactive).

The same assay, now with this note: HepG2 viability, ATP luminescence (CellTiter-Glo), 72 h; at 2.85 µM; stronger effect = lower value; 0% = untreated, negative = ATP loss.
With `COc1cc(-c2coc3c(C(=O)NCc4ccc(C(F)(F)F)cc4)cccc23)ccc1O`, the max activity is -25.6% (inactive).
Still for that read-out and setting: the figure for `COCC(=O)Nc1ccc2c(c1)[C@@H]1C[C@@H](CC(=O)NCc3ccc(-c4ccccc4)cc3)O[C@@H](CO)[C@@H]1O2` is -28% (inactive); for `O=C(Sc1cccc2cccnc12)c1ccccc1Br` it is -31.3% (inactive).
As to `O=C(C[C@@H]1CC[C@@H]2[C@H](COC[C@@H](O)CN2S(=O)(=O)c2ccc(F)cc2)O1)NCc1ccc(Cl)c(Cl)c1`, the max activity was -11.2% (inactive).
Same read-out and setting: then `CC(C)NC(=O)N(C)C[C@@H]1Oc2cc(C#Cc3ccc(F)cc3)ccc2S(=O)(=O)N([C@H](C)CO)C[C@H]1C`, with -21.1% (inactive); and `C[C@@H]1CN([C@H](C)CO)C(=O)c2cc(C#CCc3ccccc3)cnc2O[C@@H]1CN(C)Cc1cccc(F)c1`, with -31.8% (inactive).
In the case of `Cc1ccccc1N=Nc1c(O)n(C)c2ccccc12`, the max activity is -14.8% (inactive).
Still for that read-out and setting: the figure for `C[C@@H]1CN([C@@H](C)CO)C(=O)Cc2cc(NC(=O)Nc3ccc(C(F)(F)F)cc3)ccc2O[C@@H]1CN(C)Cc1ccc(C(=O)Nc2ccccc2N)cc1` is -33% (inactive); for `COc1ccc(-c2cnc3c(NC=O)cc(-c4ccccc4OC)cn23)cc1OC` it is -32.9% (inactive).
Same read-out and setting: then `CCOC(=O)Cc1csc(NC(=S)NC(=O)c2ccc(C)cc2)n1`, with 11.3% (inactive).
The same measure, in the same setting: then `COC(=O)C[C@@H]1CC[C@@H]2[C@@H](COc3ccc(NC(=O)Cc4cccs4)cc3C(=O)N2C)O1`, with -25% (inactive).

The assay is the same for the next values; noted with them: HepG2 viability, ATP luminescence (CellTiter-Glo), 72 h; at 8 µM; stronger effect = lower value; 0% = untreated, negative = ATP loss.
For `Cc1ccc(-c2ccc3c(c2)O[C@@H](CN(C)C(=O)Nc2ccc(F)cc2)[C@H](C)CN([C@@H](C)CO)S3(=O)=O)cc1`, the max activity was -53.8% (inactive).
On the same count and under the same terms, the figure for `CCOc1ccc(/C=C2\CCc3ccccc3C2=O)cc1` is -13.7% (inactive).
The same measure, in the same setting: the figure for `COc1ccc(C2c3cc4c(cc3OC(NNC(N)=O)C2C)OCO4)cc1` (stereo not given) is -29.8% (inactive); for `COc1ccccc1NC(=O)N1[C@@H]2CNC[C@H]1[C@@H]2c1ccc(-c2ccc(C#N)cc2)cc1` it is -24.4% (inactive).
Same read-out and setting: then `CCc1ccc(S(=O)(=O)c2ccc(-n3nc(C)cc3N)cc2)cc1`, with 24% (inactive); and `CCN1CCS/C1=C\C=C\C1=[N+](CC)CCS1`, with -37.7% (inactive); and `CO[C@H]1CN(C)C(=O)c2cc(NC(=O)NC(C)C)ccc2OC[C@H](C)N(Cc2ccc(-c3ccccn3)cc2)C[C@@H]1C`, with -24.8% (inactive).

The same assay, now with this note: HepG2 viability, ATP luminescence (CellTiter-Glo), 72 h; at 26 µM; stronger effect = lower value.
In the case of `O=C1NC(=S)NC(=O)C1=Cc1cccn1-c1ccc(O)cc1`, the max activity is -27.6% (inactive).

The assay is the same for the next values; noted with them: HepG2 viability, ATP luminescence (CellTiter-Glo), 72 h; at 26 µM; stronger effect = lower value; 0% = untreated, negative = ATP loss.
For the compound `CO[C@H]1CN(C)C(=O)c2cc(NC(=O)c3ccc(Oc4ccccc4)cc3)ccc2OC[C@H](C)NC[C@@H]1C`, the max activity was -95.1% (inactive).
In the case of `COc1ccc(-c2cn(-c3ccc(OC)cc3)c3[n+]2-c2ccccc2CC3)cc1`, the max activity is -23.2% (inactive).
The same measure, in the same setting: then `O=C(CCCN1C(=O)/C(=C/c2ccccc2Cl)SC1=S)NNC(=O)c1ccc(Cl)cc1`, with 22.9% (inactive); and `Nc1sc(-c2ccccc2)cc1-c1n[nH]c(=S)n1C1CCCCC1`, with -25.2% (inactive).
Same read-out and setting: then `COc1cc(OC)cc(-c2cc3nc(C)c(CCC(=O)O)c(C)n3n2)c1`, with -9.81% (inactive).
Same read-out and setting: then `COC(=O)CC1(C(=O)OC)Oc2ccc(Br)cc2C(=O)N1c1cccc(Cl)c1Cl` (stereo not given), with -23% (inactive); and `CCCC[C@@H]1Cc2[nH][nH]c(=O)c2[C@H](c2ccc3ccccc3c2)O1`, with 22% (inactive).
As to `Cc1ccc(C(CC(=O)O)Nc2nc(N3CCOCC3)nc(N3CCOCC3)n2)cc1` (stereo not given), the max activity was 36.9% (inactive).
Take `O=C(O)c1cccc(N/N=C/c2cccs2)c1`: the max activity is -13.2% (inactive).
Still for that read-out and setting: the figure for `COc1ccc(S(=O)(=O)N=Nc2c(O)[nH]c3ccccc23)cc1` is -27.4% (inactive).
Still for that read-out and setting: the figure for `C=CCOc1ccccc1C(=O)/C=C1/C(=O)Nc2ccccc21` is -31.5% (inactive); for `CCOc1ccc(OCc2ccc(C(=O)NN=Cc3ccc[nH]3)cc2)cc1` it is -34% (inactive).
The same measure, in the same setting: then `COc1ccc(-c2nc3c(s2)CCc2onc(-c4ccc(OC)cc4)c2-3)cc1`, with -25.8% (inactive).
For the compound `COc1ccc(-c2ccc3c(c2)[C@H]2[C@H](CCN2S(=O)(=O)c2ccc(OC)cc2)[C@@H](CO)N3C)cc1`, the max activity is -27% (inactive).
Still for that read-out and setting: then `Cc1ccc(NC(=O)CCN2CCCCC2)cc1`, with 20.8% (inactive); and `C(=Cc1cnc2ccccc2n1)c1ccc2c(c1)OCO2`, with -50.5% (inactive).
Still for that read-out and setting: then `Cc1ccc(/C=C/C(=O)N2CCN(S(=O)(=O)c3c(C)c(C)cc(C)c3C)CC2)o1`, with -14.8% (inactive).
Same read-out and setting: the figure for `Cc1c(N=Cc2cc(Br)cc(Br)c2O)cccc1C(=O)O` is -9.11% (inactive); for `CC(=O)Oc1ccc(-c2ccc(C(=O)Nc3cccc(S(=O)(=O)N4CCOCC4)c3)cc2)cc1` it is -21.6% (inactive).
Regarding `Cc1ccc(N2C(=O)c3cccc4c(N)ccc(c34)C2=O)c2cccnc12`, the max activity was -20.7% (inactive).
The same measure, in the same setting: then `O=c1c(Cl)cc(Cl)nn1-c1ccccc1`, with -34.4% (inactive); and `CCOc1ccc(N=Nc2ccc(O)c3ncccc23)cc1`, with -26.7% (inactive).
